# According to ChEMBL document CHEMBL4715821, “Discovery of 4-ethoxy-7H-pyrrolo[2,3-d]pyrimidin-2-amines as potent, selective and orally bioavailable LRRK2 inhibitors” (Bioorg Med Chem Lett, 2018):
# Legend:
# [1] = Unbound fraction in human serum; assay type: ADME, cell-free
# [2] = target: NUAK family SNF1-like kinase 1 (Homo sapiens) (UniProt O60285); assay: Inhibition of wild-type human partial length ARK5 (E25 to I332 residues) expressed in bacterial expression system assessed as residual activity at 1 uM by Kinomescan method relative to control
# [3] = target: Serine/threonine-protein kinase B-raf (Homo sapiens) (UniProt P15056); assay: Inhibition of wild type human BRAF (S429 to E741 residues) expressed in bacterial expression system assessed as residual activity at 1 uM by Kinomescan method relative to control
# [4] = target: Tyrosine-protein kinase CSK (Homo sapiens) (UniProt P41240); assay: Inhibition of wild-type human full length CSK (M1 to L450 residues) expressed in bacterial expression system assessed as residual activity at 1 uM by Kinomescan method relative to control
# Chain of Tyrosine-protein kinase CSK (Homo sapiens) (P41240 2-450 limits assumed): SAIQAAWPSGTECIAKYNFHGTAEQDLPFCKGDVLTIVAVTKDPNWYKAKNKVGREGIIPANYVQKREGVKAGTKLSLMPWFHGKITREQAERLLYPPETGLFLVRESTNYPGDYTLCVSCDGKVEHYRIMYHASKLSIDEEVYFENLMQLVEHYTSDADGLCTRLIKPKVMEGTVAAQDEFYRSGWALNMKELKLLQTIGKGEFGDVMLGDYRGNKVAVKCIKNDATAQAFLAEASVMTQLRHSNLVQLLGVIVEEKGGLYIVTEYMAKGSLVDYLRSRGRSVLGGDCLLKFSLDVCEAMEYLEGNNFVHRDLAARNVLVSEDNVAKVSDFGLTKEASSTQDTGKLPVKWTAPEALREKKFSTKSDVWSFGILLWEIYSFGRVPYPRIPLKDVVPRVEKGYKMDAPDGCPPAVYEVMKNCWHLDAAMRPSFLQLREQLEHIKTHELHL
# [5] = target: Dual specificity tyrosine-phosphorylation-regulated kinase 1A (Homo sapiens) (UniProt Q13627); assay: Inhibition of wild-type human partial length DYRK1A (H129 to S509 residues) expressed in mammalian expression system assessed as residual activity at 1 uM by Kinomescan method relative to control
# [6] = target: Dual specificity tyrosine-phosphorylation-regulated kinase 4 (Homo sapiens) (UniProt Q9NR20); assay: Inhibition of DYRK4 (unknown origin) assessed as residual activity at 1 uM by Kinomescan method relative to control
# [7] = target: Tyrosine-protein kinase JAK1 (Homo sapiens) (UniProt P23458); assay: Inhibition of wild-type human partial length JAK1 JH2 pseudokinase domain (R537 to D855 residues) expressed in mammalian expression system assessed as residual activity at 1 uM by Kinomescan method relative to control
# Chain of Tyrosine-protein kinase JAK1 (Homo sapiens) (P23458 whole entry, the tested form may be a part): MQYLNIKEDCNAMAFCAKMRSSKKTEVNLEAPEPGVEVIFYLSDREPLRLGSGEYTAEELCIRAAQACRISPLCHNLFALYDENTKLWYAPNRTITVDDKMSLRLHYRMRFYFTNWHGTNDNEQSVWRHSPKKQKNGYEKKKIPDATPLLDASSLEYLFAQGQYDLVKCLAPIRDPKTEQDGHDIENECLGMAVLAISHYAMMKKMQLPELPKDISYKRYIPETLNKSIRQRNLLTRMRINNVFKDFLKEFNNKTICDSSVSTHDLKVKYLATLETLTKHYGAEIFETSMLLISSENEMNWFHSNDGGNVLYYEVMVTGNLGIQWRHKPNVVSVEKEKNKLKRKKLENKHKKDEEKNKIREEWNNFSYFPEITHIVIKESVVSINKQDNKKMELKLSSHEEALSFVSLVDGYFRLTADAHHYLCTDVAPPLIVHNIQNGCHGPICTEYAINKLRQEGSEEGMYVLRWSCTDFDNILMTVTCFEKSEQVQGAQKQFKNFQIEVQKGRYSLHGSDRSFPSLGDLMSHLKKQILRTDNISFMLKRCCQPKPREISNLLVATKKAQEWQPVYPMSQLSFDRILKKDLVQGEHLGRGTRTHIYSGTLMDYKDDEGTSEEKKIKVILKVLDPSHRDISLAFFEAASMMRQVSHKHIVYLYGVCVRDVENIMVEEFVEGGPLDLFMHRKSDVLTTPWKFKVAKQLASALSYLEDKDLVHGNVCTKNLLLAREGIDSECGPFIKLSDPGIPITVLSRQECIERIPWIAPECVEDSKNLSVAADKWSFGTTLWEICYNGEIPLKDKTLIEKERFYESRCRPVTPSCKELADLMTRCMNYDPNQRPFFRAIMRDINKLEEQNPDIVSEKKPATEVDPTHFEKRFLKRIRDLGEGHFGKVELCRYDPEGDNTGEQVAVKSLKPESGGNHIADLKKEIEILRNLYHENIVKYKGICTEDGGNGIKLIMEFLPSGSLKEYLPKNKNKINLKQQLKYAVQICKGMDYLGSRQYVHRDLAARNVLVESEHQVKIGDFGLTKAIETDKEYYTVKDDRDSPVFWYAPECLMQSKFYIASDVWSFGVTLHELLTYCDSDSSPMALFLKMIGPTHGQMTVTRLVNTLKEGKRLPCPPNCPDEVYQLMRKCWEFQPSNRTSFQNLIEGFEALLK
# [8] = target: Serine/threonine-protein kinase STK11 (Homo sapiens) (UniProt Q15831); assay: Inhibition of wild-type human full length LKB1 (M1 to Q433 residues) expressed in bacterial expression system assessed as residual activity at 1 uM by Kinomescan method relative to control
# Chain of Serine/threonine-protein kinase STK11 (Homo sapiens) (Q15831 whole entry, the tested form may be a part): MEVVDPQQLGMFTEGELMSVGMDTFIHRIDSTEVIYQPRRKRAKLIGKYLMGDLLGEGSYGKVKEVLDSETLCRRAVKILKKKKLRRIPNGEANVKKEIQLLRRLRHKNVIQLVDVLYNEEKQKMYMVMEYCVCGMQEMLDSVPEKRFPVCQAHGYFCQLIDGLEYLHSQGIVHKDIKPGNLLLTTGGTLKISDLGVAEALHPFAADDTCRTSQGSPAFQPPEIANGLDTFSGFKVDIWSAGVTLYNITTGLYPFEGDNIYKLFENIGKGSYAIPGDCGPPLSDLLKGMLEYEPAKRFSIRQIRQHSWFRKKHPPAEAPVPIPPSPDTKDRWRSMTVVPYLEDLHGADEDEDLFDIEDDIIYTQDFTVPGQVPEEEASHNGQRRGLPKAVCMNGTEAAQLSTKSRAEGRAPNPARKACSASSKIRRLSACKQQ
# [9] = target: MAP kinase-interacting serine/threonine-protein kinase 1 (Homo sapiens) (UniProt Q9BUB5); assay: Inhibition of MNK1 (unknown origin) assessed as residual activity at 1 uM by Kinomescan method relative to control
# [10] = target: MAP/microtubule affinity-regulating kinase 3 (Homo sapiens) (UniProt P27448); assay: Inhibition of wild-type human full length MARK3 (M1 to L729 residues) expressed in bacterial expression system assessed as residual activity at 1 uM by Kinomescan method relative to control
# [11] = target: Mitogen-activated protein kinase kinase kinase 3 (Homo sapiens) (UniProt Q99759); assay: Inhibition of MEKK3 (unknown origin) assessed as residual activity at 1 uM by Kinomescan method relative to control
# [12] = target: Lymphokine-activated killer T-cell-originated protein kinase (Homo sapiens) (UniProt Q96KB5); assay: Inhibition of PBK (unknown origin) assessed as residual activity at 1 uM by Kinomescan method relative to control
# Chain of Lymphokine-activated killer T-cell-originated protein kinase (Homo sapiens) (Q96KB5 whole entry): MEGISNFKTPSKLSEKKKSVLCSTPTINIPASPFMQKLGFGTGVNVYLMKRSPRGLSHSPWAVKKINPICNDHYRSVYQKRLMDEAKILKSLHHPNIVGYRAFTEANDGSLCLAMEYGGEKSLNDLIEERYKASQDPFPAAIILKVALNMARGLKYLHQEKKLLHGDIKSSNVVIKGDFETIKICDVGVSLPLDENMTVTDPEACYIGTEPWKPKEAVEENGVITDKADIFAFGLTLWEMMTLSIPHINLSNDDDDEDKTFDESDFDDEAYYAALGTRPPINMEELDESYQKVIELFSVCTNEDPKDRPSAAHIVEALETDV
# [13] = target: Protein kinase C epsilon type (Homo sapiens) (UniProt Q02156); assay: Inhibition of PKCepsilon (unknown origin) assessed as residual activity at 1 uM by Kinomescan method relative to control
# [14] = target: Protein kinase C eta type (Homo sapiens) (UniProt P24723); assay: Inhibition of PKCeta (unknown origin) assessed as residual activity at 1 uM by Kinomescan method relative to control
# Chain of Protein kinase C eta type (Homo sapiens) (P24723 whole entry, the tested form may be a part): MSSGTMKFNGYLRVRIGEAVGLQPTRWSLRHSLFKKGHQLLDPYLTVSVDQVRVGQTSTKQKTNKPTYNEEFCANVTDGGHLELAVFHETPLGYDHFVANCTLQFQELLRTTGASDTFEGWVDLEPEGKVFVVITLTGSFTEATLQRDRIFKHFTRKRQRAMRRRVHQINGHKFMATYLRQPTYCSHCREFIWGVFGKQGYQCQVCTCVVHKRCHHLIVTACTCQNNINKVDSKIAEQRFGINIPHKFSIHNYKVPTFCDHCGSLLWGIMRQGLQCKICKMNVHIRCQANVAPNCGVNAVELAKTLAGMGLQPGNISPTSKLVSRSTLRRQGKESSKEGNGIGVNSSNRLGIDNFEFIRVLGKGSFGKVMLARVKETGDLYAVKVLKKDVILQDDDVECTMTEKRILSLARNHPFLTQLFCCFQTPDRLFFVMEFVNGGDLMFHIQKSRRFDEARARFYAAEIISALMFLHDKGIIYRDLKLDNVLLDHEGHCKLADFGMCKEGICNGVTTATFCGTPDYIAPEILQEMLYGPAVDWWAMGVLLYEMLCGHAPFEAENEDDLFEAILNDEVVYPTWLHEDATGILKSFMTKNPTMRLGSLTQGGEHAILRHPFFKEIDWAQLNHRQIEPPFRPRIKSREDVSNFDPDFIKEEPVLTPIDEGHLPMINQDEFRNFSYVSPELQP
# [15] = target: Serine/threonine-protein kinase D3 (Homo sapiens) (UniProt O94806); assay: Inhibition of wild-type human partial length PRKD3 (S543 to E863 residues) expressed in bacterial expression system assessed as residual activity at 1 uM by Kinomescan method relative to control
# [16] = target: cGMP-dependent protein kinase 1 (Homo sapiens) (UniProt Q13976); assay: Inhibition of PKG1a (unknown origin) assessed as residual activity at 1 uM by Kinomescan method relative to control
# [17] = target: STE20-like serine/threonine-protein kinase (Homo sapiens) (UniProt Q9H2G2); assay: Inhibition of wild-type human partial length SLK (S14 to A307 residues) expressed in bacterial expression system assessed as residual activity at 1 uM by Kinomescan method relative to control
# Chain of STE20-like serine/threonine-protein kinase (Homo sapiens) (Q9H2G2 whole entry, looked up, the tested form may be a part): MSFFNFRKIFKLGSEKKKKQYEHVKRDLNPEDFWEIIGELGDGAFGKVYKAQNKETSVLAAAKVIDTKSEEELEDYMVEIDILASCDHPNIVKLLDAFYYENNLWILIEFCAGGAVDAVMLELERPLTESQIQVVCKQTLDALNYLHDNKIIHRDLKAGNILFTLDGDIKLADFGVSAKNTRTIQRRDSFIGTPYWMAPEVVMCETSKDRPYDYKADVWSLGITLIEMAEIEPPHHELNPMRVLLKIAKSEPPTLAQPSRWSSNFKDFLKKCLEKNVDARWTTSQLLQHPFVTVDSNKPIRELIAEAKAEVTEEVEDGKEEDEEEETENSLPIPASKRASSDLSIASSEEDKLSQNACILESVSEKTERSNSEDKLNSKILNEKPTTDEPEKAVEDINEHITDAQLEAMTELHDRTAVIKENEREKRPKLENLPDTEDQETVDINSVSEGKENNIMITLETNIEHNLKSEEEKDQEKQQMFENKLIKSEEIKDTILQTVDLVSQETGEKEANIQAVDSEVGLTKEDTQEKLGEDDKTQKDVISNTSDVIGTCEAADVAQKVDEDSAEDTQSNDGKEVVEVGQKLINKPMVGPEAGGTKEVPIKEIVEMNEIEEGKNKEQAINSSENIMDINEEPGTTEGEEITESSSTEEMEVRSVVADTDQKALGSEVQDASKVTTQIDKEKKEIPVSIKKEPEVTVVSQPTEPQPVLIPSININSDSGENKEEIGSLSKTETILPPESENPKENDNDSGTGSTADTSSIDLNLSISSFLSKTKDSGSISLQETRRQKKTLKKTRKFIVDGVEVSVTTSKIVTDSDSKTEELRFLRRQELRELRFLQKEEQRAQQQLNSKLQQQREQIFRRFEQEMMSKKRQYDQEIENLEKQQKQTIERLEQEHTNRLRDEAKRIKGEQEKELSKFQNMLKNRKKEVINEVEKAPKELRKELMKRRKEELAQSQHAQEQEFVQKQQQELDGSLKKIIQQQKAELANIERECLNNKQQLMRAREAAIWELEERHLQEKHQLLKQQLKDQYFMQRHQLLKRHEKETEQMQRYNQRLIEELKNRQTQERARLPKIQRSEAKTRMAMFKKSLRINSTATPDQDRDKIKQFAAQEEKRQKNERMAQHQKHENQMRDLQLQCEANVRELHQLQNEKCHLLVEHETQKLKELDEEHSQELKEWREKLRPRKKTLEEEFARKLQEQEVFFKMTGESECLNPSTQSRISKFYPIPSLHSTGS
# [18] = target: Angiopoietin-1 receptor (Homo sapiens) (UniProt Q02763); assay: Inhibition of wild-type human partial length TIE2 (N804 to T1112 residues) expressed in bacterial expression system assessed as residual activity at 1 uM by Kinomescan method relative to control
# [19] = target: CDK1/Cyclin E (Homo sapiens) (UniProt P06493+P24864); assay: Inhibition of CDK1/Cyclin E (unknown origin) assessed as residual activity at 1 uM by Kinomescan method relative to control; assay type: protein-complex assay
# Chain of CDK1/Cyclin E (Homo sapiens) (P06493 whole entry, looked up, the tested form may be a part): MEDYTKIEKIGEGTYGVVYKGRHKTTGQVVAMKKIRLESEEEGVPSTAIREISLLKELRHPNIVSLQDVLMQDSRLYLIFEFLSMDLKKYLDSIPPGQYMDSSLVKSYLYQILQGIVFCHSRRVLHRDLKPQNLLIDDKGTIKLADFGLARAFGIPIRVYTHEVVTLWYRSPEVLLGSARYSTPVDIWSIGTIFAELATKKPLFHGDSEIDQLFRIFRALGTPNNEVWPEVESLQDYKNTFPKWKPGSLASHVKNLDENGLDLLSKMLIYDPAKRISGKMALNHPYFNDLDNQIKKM
# Chain of CDK1/Cyclin E (Homo sapiens) (P24864 whole entry, looked up, the tested form may be a part): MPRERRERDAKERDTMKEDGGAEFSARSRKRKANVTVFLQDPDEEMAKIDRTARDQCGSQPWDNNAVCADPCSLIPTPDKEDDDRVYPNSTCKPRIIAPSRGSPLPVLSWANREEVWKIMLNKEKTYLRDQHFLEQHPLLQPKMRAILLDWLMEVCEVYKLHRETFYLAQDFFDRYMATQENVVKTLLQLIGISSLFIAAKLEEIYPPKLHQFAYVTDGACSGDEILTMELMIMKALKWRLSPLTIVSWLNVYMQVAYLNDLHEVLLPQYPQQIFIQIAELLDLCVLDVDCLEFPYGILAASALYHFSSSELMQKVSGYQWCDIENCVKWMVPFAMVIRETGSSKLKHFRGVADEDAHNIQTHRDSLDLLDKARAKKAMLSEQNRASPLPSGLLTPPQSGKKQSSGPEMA
# [20] = target: T1, Mitogen-activated protein kinase kinase kinase kinase 3 (Homo sapiens) (UniProt Q8IVH8); assay: Inhibition of wild-type human partial length MAP4K3 (M1 to D301 residues) expressed in bacterial expression system assessed as residual activity at 1 uM by Kinomescan method relative to control
# T1 sequence (whole entry): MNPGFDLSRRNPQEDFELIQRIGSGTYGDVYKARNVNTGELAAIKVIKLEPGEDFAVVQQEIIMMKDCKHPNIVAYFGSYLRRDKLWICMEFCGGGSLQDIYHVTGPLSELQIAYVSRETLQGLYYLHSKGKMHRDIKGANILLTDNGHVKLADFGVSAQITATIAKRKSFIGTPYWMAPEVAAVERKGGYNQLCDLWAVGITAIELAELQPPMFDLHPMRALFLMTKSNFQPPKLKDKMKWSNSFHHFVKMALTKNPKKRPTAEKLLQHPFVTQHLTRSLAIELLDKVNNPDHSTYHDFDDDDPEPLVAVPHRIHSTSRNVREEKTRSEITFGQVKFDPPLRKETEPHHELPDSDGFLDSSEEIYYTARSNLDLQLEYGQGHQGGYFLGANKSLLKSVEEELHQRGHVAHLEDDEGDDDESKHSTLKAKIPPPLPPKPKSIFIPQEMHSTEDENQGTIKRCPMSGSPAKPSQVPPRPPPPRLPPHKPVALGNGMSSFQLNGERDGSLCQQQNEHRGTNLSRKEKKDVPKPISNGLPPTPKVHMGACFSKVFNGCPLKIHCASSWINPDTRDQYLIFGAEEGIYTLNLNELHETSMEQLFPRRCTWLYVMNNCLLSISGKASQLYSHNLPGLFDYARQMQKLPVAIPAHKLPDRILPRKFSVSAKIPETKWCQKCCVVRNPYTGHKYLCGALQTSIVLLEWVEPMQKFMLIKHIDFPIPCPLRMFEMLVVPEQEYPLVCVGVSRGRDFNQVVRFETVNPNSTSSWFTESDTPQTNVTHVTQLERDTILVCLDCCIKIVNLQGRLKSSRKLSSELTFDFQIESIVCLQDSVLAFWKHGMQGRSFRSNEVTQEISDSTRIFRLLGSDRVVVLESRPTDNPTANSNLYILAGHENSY
# [21] = target: Serine/threonine-protein kinase SIK3 (Homo sapiens) (UniProt Q9Y2K2); assay: Inhibition of SIK3 (unknown origin) assessed as residual activity at 1 uM by Kinomescan method relative to control
smiles,measurement,setting,value
CCOc1nc(Nc2ccc(C(=O)N3CCOCC3)cc2OC)nc2[nH]ccc12,fraction unbound,[1],0.059
same,Activity,[2],47.6%
same,Activity,[3],88%
same,Activity,[4],104%
same,Activity,[5],72.2%
same,Activity,[6],94.6%
same,Activity,[7],97.3%
same,Activity,[8],99%
same,Activity,[9],98.7%
same,Activity,[10],92.4%
same,Activity,[11],97%
same,Activity,[12],101%
same,Activity,[13],95%
same,Activity,[14],99.2%
same,Activity,[15],63.7%
same,Activity,[16],92.5%
same,Activity,[17],109%
same,Activity,[18],108%
same,Activity,[19],96.4%
same,Activity,[20],88.9%
same,Activity,[21],106%
